In patent EP4285905A1, “CABERGOLINE OR A PHARMACEUTICALLY ACCEPTABLE SALT OR SOLVATE THEREOF, FOR USE IN PREVENTION OR DELAY OF POST-PREGNANCY BREAST CANCER IN A FEMALE MAMMAL” (Consejo Superior de Investigaciones Cientificas, priority 2022, dated 2023):

Tests used:
recombinant (RFP+) cells = test: Flow cytometry of RFP+ recombinant mammary epithelial subpopulations; assay type: in vivo, mice; details: 60 days after weaning
Excerpt: The mouse model used for the cytometry studies was obtained by crossing the conditional model K14Cre; Brca1^F/F; P53^F/F with a model that expresses red fluorescent protein (RFP) under the promoter of the ROSA26 locus. This promoter has a stop codon flanked by LoxP sites that recognize Cre-recombinase. In this way, cells that lose Brca1 (gene) and P53 (gene) due to the action of Cre-recombinase also express RFP and emit fluorescence. The mouse was obtained from the European repository (European mutant mouse archive - EMMA) and was generated by the group of Hans Jörg Fehling from the Institute of Immunology of the Clinical University of Ulm, Germany. For these studies, between 6 and 11 mice from the different study groups were used.
Once the mouse mammary glands were removed, they were incubated in a 50 mL tube containing 9 mL of medium (Gibco DMEM/F-12, #11554546, Fisher Scientific), 500 µL of collagenase and 500 µL of hyaluronidase, at a temperature of 37 °C for 16 hours. After incubation, the aggregated tissue debris was disrupted by pipetting for approximately 30 seconds and the sample was centrifuged for 5 minutes at 350 g at room temperature. Centrifugation was performed, in all examples, using the Eppendorf 5804R refrigerated centrifuge including an A-44 rotor with a radius of 15 cm (width (metric) exterior 634 mm; depth (metric) 550 mm, height (metric) exterior 342 mm). The supernatant was discarded and the pellet formed was resuspended in 2 mL of ACK buffer (Gibco ACK Lysing Buffer, #A10492-01, Fisher Scientific) to lyse the erythrocytes present in the sample. The disaggregated sample was incubated in ACK buffer for 5 minutes at room temperature and subsequently centrifuged at 350 g for 5 minutes. After centrifugation, the supernatant was discarded and 1 mL of trypsin was added at 37 °C. The pellet was resuspended by pipetting for 2 minutes. Next, 10 mL of saline (Gibco HBSS, #14025-092, Fisher Scientific) supplemented with 10 mM HEPES buffer and fetal bovine serum was added and centrifuged for 5 minutes at 350 g at room temperature. Then, the supernatant was discarded and 1 mL of the buffered saline solution (hereinafter HF) and 100 µL of warm DNase were added, carefully pipetted for 1 minute and 5 mL of cold HF was added, to stop action of the DNase. The mixture was filtered through a 40 µm filter and washed with 5 mL of cold HF. It was centrifuged for 5 minutes at 350 g, at a temperature of 4 °C and the supernatant was removed after centrifugation. Subsequently, the mixture was resuspended in 5 mL of cold HF and the mixture was distributed in cytometry tubes with a 35 µm filter. 4/5 of the sample was allocated for immunolabeling and the remaining 1/5 was allocated as an unlabelled control. It was centrifuged for 5 minutes at 1200 rpm (= 20 s^-1) at a temperature of 4 °C and the supernatant was decanted after centrifugation. Subsequently, 52 µL of blocking solution, consisting of 50 µL of HF and 2 µL of anti-CD16/CD32 antibody, were added, gently vortexed and incubated for 10 minutes at 4 °C. Next, 50 µL of immuno-labelling solution made up of the following antibodies: CD45 FITC, CD140 FITC, CD31 FITC, Ter119 FITC, CD49fAPC, CD29 APC-Cy7, CD61 BV421, Sca1 PerCP-Cy5, EpCAM PE- Cy7, e506, was added to the tube intended for staining and 50 µL of HF was added to the control tube. After incubating for 30 minutes and performing a wash, the samples were acquired with the LSR Fortessa X-20 Cell Analyzer cytometer (BD Biosciences). […]

Brca1/P53-deficient mice = test: Caspase 3 immunohistochemistry as a marker of apoptosis in the mammary gland; assay type: in vivo
Excerpt: Subsequently, the same groups of animals indicated were generated and samples were collected from the mammary glands at 1, 3, 7, 30 and 60 days post-gestation (in non-lactating multiparous) or post-weaning (in lactating multiparous, with and without treatment with cabergoline) (N = 5 mice per group at each time studied).
The left inguinal breast of each mouse was embedded in paraffin for further study. Once removed from the animals, the breasts were fixed in 4% paraformaldehyde (Scharlau FO) for 24 hours and, subsequently, they were kept in 70% ethanol at a temperature of 4 °C, until they were processed in the Comparative Molecular Pathology Service of the Salamanca Cancer Research Center. Tissues were dehydrated by three 1-hour incubations in increasing concentrations of ethanol (60%, 80%, and 100%). Three other 1-hour incubations were carried out in xylol, to replace the dehydrating agent with a substance miscible in paraffin. Finally, three other incubations of 1 hour and 20 minutes were carried out with liquid paraffin, after which blocks were made with a mould suitable for the size of the tissue in a paraffin embedding station. When the paraffin blocks were completely cold, 2-µm-thick sections were made using a rotation microtome (Leica RM2255). […]
To quantify cells positive for Ki-67 or caspase 3, the Leica Application Suite (LAS) V3.7 program was used. […]

[1] = KO-RFP+ group, vs nulliparous and lactating multiparous mice
[2] = treated vs untreated multiparous mice

With `C=CCN1C[C@H](C(=O)N(CCCN(C)C)C(=O)NCC)C[C@@H]2c3cccc4[nH]cc(c34)C[C@H]21` [cabergoline, 1-[(6-allylergolin-8ß-yl)-carbonyl]-1-[3-(dimethylamino)propyl]-3-ethylurea] as the molecule, how does the “ductal precursor cells (CD61+) with respect to total recombinant ductal cells” value (recombinant (RFP+) cells; [1]) read?
The value was “relative increase in precursors”.

What about the “mature ductal cells (CD61-) with respect to total recombinant ductal cells” value (recombinant (RFP+) cells; [1]) of the same molecule?
The value was “relative decrease in mature ductal cells”.

And the “ductal cell subpopulations with respect to total recombinant epithelial cells” value (recombinant (RFP+) cells; [2])?
Its value is “no statistically significant differences”.

What about the “proportion of luminal and basal cells within recombinant cells (RFP+)” value (recombinant (RFP+) cells; [2]) of the same molecule?
Its value is “No significant differences”.

And the “proportion of luminal ductal cells (Sca1+) within recombinant luminal cells” value (recombinant (RFP+) cells; [2])?
The value was “no significant differences”.

And the “apoptosis (percentage of apoptotic cells positive against caspase 3)” value (Brca1/P53-deficient mice; 3 days of post-lactational involution, vs untreated multiparous mice, P < 0.0001)?
The value was “significant increase in apoptosis”.

What about the “basal apoptosis of the epithelium (caspase 3)” value (Brca1/P53-deficient mice; 30 days post-weaning) of the same molecule?
Its value is “greater basal apoptosis of the epithelium”.
